According to US20230056057A1, “HERBICIDE CO[…] MONOETHANOLAMINE SALT AND A PPO-INHIBITOR” (MONSANTO TECHNOLOGY LLC, priority 2020, published 2023):
Structures can show the parent of a compound that is named as a salt.

| tendency to salt out (at higher concentrations, compared to the dicamba DGA salt) | crystallization at higher loadings (higher loadings) | Compound |
| --- | --- | --- |
| less tendency to salt out | – | COc1c(Cl)ccc(Cl)c1C(=O)O [dicamba EA salt, dicamba monoethanolamine salt] |
| – | crystallizes out | COc1c(Cl)ccc(Cl)c1C(=O)O.NCCOCCO [dicamba DGA salt, diglycolamine (DGA) salt of dicamba] |
